IC50 data for 28 molecules are collected here from patent US20150005288A1, “SUBSTITUTED PHENYLIMIDAZOPYRAZOLES AND USE THEREOF” (Bayer Intellectual Property GmbH, priority 2012, published 2015).

The structures appear in SMILES notation. Counter-ions that a name gives are not always drawn.

The target of the experiment is T1, intracellular domain of human Tie2 (GST fusion protein) (Homo sapiens, UniProt Q02763).
T1 construct: intracellular domain of human Tie2 (amino acids 776-1124); made in house; host or cells: Baculovirus-infected insect cells (Hi5)
T1 sequence (Q02763 776-1124): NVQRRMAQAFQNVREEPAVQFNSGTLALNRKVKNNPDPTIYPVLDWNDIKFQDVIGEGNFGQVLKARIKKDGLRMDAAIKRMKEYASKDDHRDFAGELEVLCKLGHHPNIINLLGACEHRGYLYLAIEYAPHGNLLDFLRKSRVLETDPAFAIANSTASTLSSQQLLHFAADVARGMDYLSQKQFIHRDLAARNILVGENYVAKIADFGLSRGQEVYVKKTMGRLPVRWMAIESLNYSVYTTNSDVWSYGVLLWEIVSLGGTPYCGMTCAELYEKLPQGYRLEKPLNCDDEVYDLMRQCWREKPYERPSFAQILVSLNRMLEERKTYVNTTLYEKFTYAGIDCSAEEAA
Nature of the experiment: Tie2 kinase assay (Tie2-TR-FRET). The settings on record: ATP concentration 1 mM, in some cases means of several independent determinations. Type of experiment: biochemical. In outline: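 High ATP (1 mM final) with 1 μM biotin-peptide substrate; reaction 60 min at 22 °C after 15 min compound pre-binding to GST-Tie2 (aa 776-1124) in HEPES pH 7 with Mg/Mn. Phosphopeptide detected by TR-FRET emission ratio 665/620 nm. IC50 from 4-parameter fit over 20 μM to 0.073 nM, duplicates.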
A general note: Time-resolved FRET reads energy transfer from a long-lived donor to a nearby acceptor.
Turning to `Cc1ccc(NC(=O)c2cc(N3CCNCC3)cc(S(F)(F)(F)(F)F)c2)cc1-n1cc(C)n2nc(-c3cn[nH]c3)cc12` [Example 10, N-{4-Methyl-3-[3-methyl-6-(1H-pyrazol-4-yl)-1H-imidazo[1,2-b]pyrazol-1-yl]phenyl}-3-(pentafluoro-λ^6-sulphanyl)-5-(piperazin-1-yl)benzamide], the IC50 (as a rule, the concentration at which inhibition is half-maximal) stood at 0.3 nM.
Under `Cc1ccc(NC(=O)c2cc(N(C)CCCN(C)C)cc(C(F)(F)F)c2)cc1-n1ccn2nc(-c3cccnc3)cc12` [Example 42, 3-{[3-(Dimethylamino)propyl](methyl)amino}-N-{4-methyl-3-[6-(pyridin-3-yl)-1H-imidazo-[1,2-b]pyrazol-1-yl]phenyl}-5-(trifluoromethyl)benzamide] stands 1.5 nM.
Under `Cc1ccc(NC(=O)c2cc(C#N)cc(S(F)(F)(F)(F)F)c2)c(C)c1-n1ccn2nc(-c3cccnc3)cc12` [Example 121, 3-Cyano-N-{2,4-dimethyl-3-[6-(pyridin-3-yl)-1H-imidazo[1,2-b]pyrazol-1-yl]phenyl}-5-(pentafluoro-λ^6-sulphanyl)benzamide] stands 18 nM; under `COc1ccc(S(F)(F)(F)(F)F)cc1C(=O)Nc1ccc(C)c(-n2ccn3nc(-c4cccnc4)cc23)c1` [Example 90, 2-Methoxy-N-{4-methyl-3-[6-(pyridin-3-yl)-1H-imidazo[1,2-b]pyrazol-1-yl]phenyl}-5-(pentafluoro-λ^6-sulphanyl)benzamide], 91 nM; under `Cc1cc(C)c(-n2ccn3nc(-c4cccnc4)cc23)cc1NC(=O)c1cc(Br)cc(S(F)(F)(F)(F)F)c1` [Example 109, 3-Bromo-N-{2,4-dimethyl-5-[6-(pyridin-3-yl)-1H-imidazo[1,2-b]pyrazol-1-yl]phenyl}-5-(pentafluoro-λ^6-sulphanyl)benzamide], 0.5 nM.
Turning to `Cc1ccc(NC(=O)c2cc(N3CCN(C)CC3)cc(C(F)(F)F)c2)cc1-n1ccn2nc(-c3cccnc3)cc12` [Example 41, 3-(4-Methylpiperazin-1-yl)-N-{4-methyl-3-[6-(pyridin-3-yl)-1H-imidazo[1,2-b]pyrazol-1-yl]-phenyl}-5-(trifluoromethyl)benzamide], half-maximal inhibition (IC50) was put at 35 nM.
The molecule `Cc1ccc(NC(=O)c2cc(N3CCOCC3)cc(S(F)(F)(F)(F)F)c2)cc1-n1ccn2nc(-c3cccnc3)cc12` [Example 19, N-{4-Methyl-3-[6-(pyridin-3-yl)-1H-imidazo[1,2-b]pyrazol-1-yl]phenyl}-3-(morpholin-4-yl)-5-(pentafluoro-λ^6-sulphanyl)benzamide] showed an IC50 of 0.9 nM.
With `Cc1ccc(NC(=O)c2cccc(C(F)(F)F)c2)cc1-n1ccn2nc(-c3cccnc3)cc12` [Example 39, N-{4-Methyl-3-[6-(pyridin-3-yl)-1H-imidazo[1,2-b]pyrazol-1-yl]phenyl}-3-(trifluoromethyl)-benzamide], the IC50 came out at 320 nM.
The molecule `Cc1cc(C)c(-n2ccn3nc(-c4cccnc4)cc23)cc1NC(=O)c1cc(C#N)cc(C(C)(C)C)c1` [Example 114, 3-tert-Butyl-5-cyano-N-{2,4-dimethyl-5-[6-(pyridin-3-yl)-1H-imidazo[1,2-b]pyrazol-1-yl]phenyl}-benzamide] displayed an IC50 of 0.3 nM.
As to `Cc1cc(C)c(-n2ccn3nc(-c4cccnc4)cc23)cc1NC(=O)c1cc(C(=O)O)cc(S(F)(F)(F)(F)F)c1` [Example 110, 3-({2,4-Dimethyl-5-[6-(pyridin-3-yl)-1H-imidazo[1,2-b]pyrazol-1-yl]phenyl}carbamoyl)-5-(pentafluoro-λ^6-sulphanyl)benzoic acid], the midpoint of inhibition, the IC50, lay at 5 nM.
In turn, `COC(=O)Cc1cc(C(=O)Nc2cc(-n3ccn4nc(-c5cccnc5)cc34)c(C)cc2C)cc(S(F)(F)(F)(F)F)c1` [Example 152, Methyl [3-({2,4-dimethyl-5-[6-(pyridin-3-yl)-1H-imidazo[1,2-b]pyrazol-1-yl]phenyl}carbamoyl)-5-(pentafluoro-λ^6-sulphanyl)phenyl]acetate] yielded a concentration for half-maximal inhibition (IC50) of 0.4 nM.
Under `Cc1cc(C)c(-n2ccn3nc(-c4cccnc4)cc23)cc1NC(=O)c1cccc(OC(C)C)c1` [Example 132, N-{2,4-Dimethyl-5-[6-(pyridin-3-yl)-1H-imidazo[1,2-b]pyrazol-1-yl]phenyl}-3-isopropoxybenzamide] stands 4.6 nM.
The figure for `Cc1ccc(NC(=O)c2cc(C#N)nc(C(C)(C)C)c2)cc1-n1ccn2nc(-c3cccnc3)cc12` [Example 93, 2-tert-Butyl-6-cyano-N-{4-methyl-3-[6-(pyridin-3-yl)-1H-imidazo[1,2-b]pyrazol-1-yl]phenyl}-isonicotinamide] is 19 nM; for `Cc1ccc(NC(=O)c2cc(C3(O)CNC3)cc(S(F)(F)(F)(F)F)c2)cc1-n1ccn2nc(-c3cccnc3)cc12` [Example 37, 3-(3-Hydroxyazetidin-3-yl)-N-{4-methyl-3-[6-(pyridin-3-yl)-1H-imidazo[1,2-b]pyrazol-1-yl]-phenyl}-5-(pentafluoro-λ^6-sulphanyl)benzamide bis(trifluoroacetate)] it is 0.4 nM.
The figure for `Cc1cc(C)c(-n2ccn3nc(-c4cccnc4)cc23)cc1NC(=O)c1cc(C#N)cc(S(F)(F)(F)(F)F)c1` [Example 147, 3-Cyano-N-{2,4-dimethyl-5-[6-(pyridin-3-yl)-1H-imidazo[1,2-b]pyrazol-1-yl]phenyl}-5-(pentafluoro-λ^6-sulphanyl)benzamide dihydrochloride] is 0.2 nM.
For the molecule `Cc1cc(C)c(-n2ccn3nc(-c4cccnc4)cc23)cc1NC(=O)c1cc(CC(C)(C)O)cc(S(F)(F)(F)(F)F)c1` [Example 154, N-{2,4-Dimethyl-5-[6-(pyridin-3-yl)-1H-imidazo[1,2-b]pyrazol-1-yl]phenyl}-3-(2-hydroxy-2-methylpropyl)-5-(pentafluoro-λ^6-sulphanyl)benzamide], inhibition was half-maximal at 0.4 nM (IC50).
On to `Cc1ccc(NC(=O)c2cccc(S(F)(F)(F)(F)F)c2)cc1-n1ccn2nc(-c3cccnc3)cc12` [Example 15, N-{4-Methyl-3-[6-(pyridin-3-yl)-1H-imidazo[1,2-b]pyrazol-1-yl]phenyl}-3-(pentafluoro-λ^6-sulphanyl)benzamide], for which the IC50 came to 24 nM.
Consider `COCCOCc1cc(C(=O)Nc2cc(-n3ccn4nc(-c5cccnc5)cc34)c(C)cc2C)cc(S(F)(F)(F)(F)F)c1` [Example 155, N-{2,4-Dimethyl-5-[6-(pyridin-3-yl)-1H-imidazo[1,2-b]pyrazol-1-yl]phenyl}-3-[(2-methoxy-ethoxy)methyl]-5-(pentafluoro-λ^6-sulphanyl)benzamide], for which half-maximal inhibition (IC50) required 0.7 nM.
The figure for `Cc1ccc(NC(=O)c2cccc(C(F)(F)F)c2F)cc1-n1ccn2nc(-c3cccnc3)cc12` [Example 46, 2-Fluoro-N-{4-methyl-3-[6-(pyridin-3-yl)-1H-imidazo[1,2-b]pyrazol-1-yl]phenyl}-3-(trifluoromethyl)benzamide] is 980 nM; for `Cc1ccc(NC(=O)c2cc(C#N)cc(C(F)(F)F)c2)cc1-n1ccn2nc(-c3cccnc3)cc12` [Example 44, 3-Cyano-N-{4-methyl-3-[6-(pyridin-3-yl)-1H-imidazo[1,2-b]pyrazol-1-yl]phenyl}-5-(trifluoromethyl)benzamide] it is 130 nM.
On to `Cc1cc(C(=O)Nc2ccc(C)c(-n3ccn4nc(-c5cccnc5)cc34)c2)cc(S(F)(F)(F)(F)F)c1` [Example 30, 3-Methyl-N-{4-methyl-3-[6-(pyridin-3-yl)-1H-imidazo[1,2-b]pyrazol-1-yl]phenyl}-5-(pentafluoro-λ^6-sulphanyl)benzamide], for which the 50% inhibitory concentration (IC50) is 2 nM.
`Cc1ccc(NC(=O)c2cc(CN3CCNCC3)cc(S(F)(F)(F)(F)F)c2)cc1-n1ccn2nc(-c3cccnc3)cc12` [Example 35, N-{4-Methyl-3-[6-(pyridin-3-yl)-1H-imidazo[1,2-b]pyrazol-1-yl]phenyl}-3-(pentafluoro-λ^6-sulphanyl)-5-(piperazin-1-ylmethyl)benzamide] registered an IC50 of 0.5 nM.
In turn, `Cc1cc(C)cc(C(=O)Nc2ccc(C)c(-n3ccn4nc(-c5cccnc5)cc34)c2)c1` [Example 52, 3,5-Dimethyl-N-{4-methyl-3-[6-(pyridin-3-yl)-1H-imidazo[1,2-b]pyrazol-1-yl]phenyl}benzamide] had an IC50 of 230 nM.
The figure for `Cc1cc(C(=O)Nc2cc(-n3ccn4nc(-c5cccnc5)cc34)c(C)cc2C)cc(S(F)(F)(F)(F)F)c1` [Example 111, N-{2,4-Dimethyl-5-[6-(pyridin-3-yl)-1H-imidazo[1,2-b]pyrazol-1-yl]phenyl}-3-methyl-5-(pentafluoro-λ^6-sulphanyl)benzamide] is 0.7 nM.
Turning to `COc1ccc(NC(=O)c2cccc(S(F)(F)(F)(F)F)c2)cc1-n1ccn2nc(-c3cccnc3)cc12` [Example 72, N-{4-Methoxy-3-[6-(pyridin-3-yl)-1H-imidazo[1,2-b]pyrazol-1-yl]phenyl}-3-(pentafluoro-λ^6-sulphanyl)benzamide], it took 350 nM to reach half-maximal inhibition (IC50).
The figure for `Cc1cc(C)c(-n2ccn3nc(-c4cccnc4)cc23)cc1NC(=O)c1cccc(N2CCC(F)(F)CC2)c1` [Example 138, 3-(4,4-Difluoropiperidin-1-yl)-N-{2,4-dimethyl-5-[6-(pyridin-3-yl)-1H-imidazo[1,2-b]pyrazol-1-yl]phenyl}benzamide] is 65 nM.
`Cc1ccc(NC(=O)c2cc(O)cc(S(F)(F)(F)(F)F)c2)cc1-n1ccn2nc(-c3cccnc3)cc12` [Example 20, 3-Hydroxy-N-{4-methyl-3-[6-(pyridin-3-yl)-1H-imidazo[1,2-b]pyrazol-1-yl]phenyl}-5-(pentafluoro-λ^6-sulphanyl)benzamide] displayed an IC50 of 3.1 nM.
In turn, `Cc1ccc(NC(=O)c2cc(C(N)=O)cc(S(F)(F)(F)(F)F)c2)cc1-n1ccn2nc(-c3cccnc3)cc12` [Example 29, N-{4-Methyl-3-[6-(pyridin-3-yl)-1H-imidazo[1,2-b]pyrazol-1-yl]phenyl}-5-(pentafluoro-λ^6-sulphanyl)isophthalamide] returned an IC50 of 2 nM.
